Data reported in patent publication US20200165194A1, “ADDITIVE COMPOSITION FOR CULTURE MEDIUM, ADDITIVE COMPOUND FOR CULTURE MEDIUM, AND METHOD FOR CULTURE OF CELLS OR TISSUE USING SAME” (NISSAN CHEMICAL CORPORATION, priority 2017, published 2020).
Read-outs that look alike come from different tables or passages of the source.

Legend:
Assay type in all cases: cell-based
[1] = test system: human alveolar basal epithelial adenocarcinoma-derived cell line A549; assay: Various human cancer cells-1, 3D culture, WST-8 (Experimental Example 5); settings: 4 days; for viability at 5 µM / viability at 10 µM: Homo sapiens, A549, 96 h, read-out: number of viable cells, relative value to control (100%)
Text: (§1) Various human-derived cancer cells were precultured (single layer culture) in respective media shown below. Human uterus cervix cancer-derived cell line HeLa (manufactured by American Type Culture Collection (hereinafter indicated as ATCC), 10% fetal bovine serum (FBS, manufactured by Corning)-containing Dulbecco's Modified Eagle's Medium (hereinafter abbreviated as DMEM) (manufactured by Wako Pure Chemical Industries, Ltd.)), human malignant melanoma-derived cell line A375 (manufactured by ATCC, 10% FBS-containing DMEM), human epithelial-like cell cancer-derived cell line A431 (manufactured by ATCC, 10% FBS and 1% MEM non-essential amino acid solution (MEM Non-Essential Amino Acids solution (hereinafter abbreviated as NEAA) (manufactured by Wako Pure Chemical Industries, Ltd.))-containing Eagle's Minimum Essential Medium (hereinafter abbreviated as EMEM) (manufactured by Wako Pure Chemical Industries, Ltd.)), human stomach adenocarcinoma-derived cell line AGS (manufactured by DS PHARMA BIO MEDICAL, 10% FBS-containing Ham's F-12 (manufactured by Wako Pure Chemical Industries, Ltd.)), human prostate cancer-derived cell line LNCaP clone FGC (manufactured by ATCC, 10% FBS-containing RPMI1640 (manufactured by Wako Pure Chemical Industries, Ltd.)), human colon adenocarcinoma-derived cell line HCT116 (manufactured by DS PHARMA BIO MEDICAL, 10% FBS-containing McCoy's 5A Medium (manufactured by Sigma-Aldrich)), human alveolar basal epithelial adenocarcinoma-derived cell line A549 (manufactured by DS PHARMA BIO MEDICAL, 10% FBS-containing DMEM), human prostate cancer-derived cell DU145 (manufactured by ATCC, 10% FBS-containing EMEM). The above-mentioned cells in the logarithmic growth phase were washed with PBS, a 0.25 w/v % trypsin-1 mmol/L EDTA (ethylenediaminetetraacetic acid) solution (manufactured by Wako Pure Chemical Industries, Ltd.) was added, and adherent cells were detached by incubating at 37° C. for 1-5 min. Each medium was added and the mixture was centrifuged. After resuspension in the same medium, each cell was recovered.
(§2) The aforementioned various cells were suspended in respective deacylated gellan gum-containing or not containing media (deacylated gellan gum concentration was 0.015 w/v %, and 0.020 w/v % for RPMI1640 alone), and seeded in a 96 well low attachment U-bottom plate (manufactured by Corning, deacylated gellan gum-free medium), or a low attachment flat bottom plate (manufactured by Corning, deacylated gellan gum-containing medium) at a cell concentration of 1000-12000 cells/135 μL/well (all 3D culture). After static culture overnight in 37° C., 5% CO2 incubator, a DMSO solution of the compound to be used in the present invention was added to each medium at a final concentration of 5 μM or 10 μM. The amount of each compound solution to be added was 15 μL/well. As a control, a DMSO solution dissolved in a medium was added (DMSO final concentration 0.1%). After continuously culturing in an incubator at 37° C., 5% CO2 for 4 days, WST-8 solution (manufactured by DOJINDO LABORATORIES) was added at 15 μL/well, and the mixture was reacted in the same incubator for 1-2 hr. […] When compared with the compound no-addition (control), one showing a value of not more than 119% as -, one showing a value of not less than 120% as ◯, and one showing a value of not less than 150% as ⊚ are shown in the tenth table.

[2] = test system: human colon adenocarcinoma-derived cell line HCT116; assay: as above; settings: 4 days
Text: as §1, §2

[3] = test system: human epithelial-like cell cancer-derived cell line A431; assay: as above; settings: 4 days
Text: as §1, §2

[4] = test system: human malignant melanoma-derived cell line A375; assay: as above; settings: 4 days; for viability at 5 µM / viability at 10 µM: Homo sapiens, A-375, 96 h, read-out: number of viable cells, relative value to control (100%)
Text: as §1, §2

[5] = test system: human prostate cancer-derived cell DU145; assay: as above; settings: 4 days; for viability at 5 µM / viability at 10 µM: Homo sapiens, DU-145, 96 h, read-out: number of viable cells, relative value to control (100%)
Text: as §1, §2

[6] = test system: human prostate cancer-derived cell line LNCaP clone FGC; assay: as above; settings: 4 days
Text: as §1, §2

[7] = test system: human stomach adenocarcinoma-derived cell line AGS; assay: as above; settings: 4 days; for viability at 5 µM / viability at 10 µM: Homo sapiens, 96 h, read-out: number of viable cells, relative value to control (100%)
Text: as §1, §2

[8] = test system: human uterus cervix cancer-derived cell line HeLa; assay: as above; settings: 4 days
Text: as §1, §2

[9] = test system: a plurality of cancer cell lines; assay: Various human cancer cells-1, summary over the cell lines (Experimental Example 5); settings: cancer cell lines under three-dimensional conditions
Text: Various human-derived cancer cells were precultured (single layer culture) in respective media shown below. […]

[10] = low attachment U-bottom plate (gellan gum-free), 10 μM
[11] = low attachment flat bottom plate (gellan gum medium), 5 μM
[12] = low attachment flat bottom plate (gellan gum medium), 10 μM
[13] = low attachment U-bottom plate (gellan gum-free), 5 μM

SMILES: CCC(=NNC(=O)C(CC)Nc1ccccc1)c1ccc(O)c(C)c1O (centres unmarked) [k-1:H-7]
- number of viable cells, relative value to control (100%) [1, 10]: ◯ (one showing a value of not less than 120% as ◯)
- number of viable cells, relative value to control (100%) [1, 11]: ⊙
- number of viable cells, relative value to control (100%) [1, 12]: ⊙
- number of viable cells, relative value to control (100%) [2, 10]: ◯ (one showing a value of not less than 120% as ◯)
- number of viable cells, relative value to control (100%) [2, 11]: ◯ (one showing a value of not less than 120% as ◯)
- number of viable cells, relative value to control (100%) [2, 12]: ⊙
- number of viable cells, relative value to control (100%) [3, 13]: ⊙
- number of viable cells, relative value to control (100%) [3, 10]: ⊙
- number of viable cells, relative value to control (100%) [3, 11]: ⊙
- number of viable cells, relative value to control (100%) [3, 12]: ⊙
- number of viable cells, relative value to control (100%) [4, 10]: ◯ (one showing a value of not less than 120% as ◯)
- number of viable cells, relative value to control (100%) [4, 11]: ◯ (one showing a value of not less than 120% as ◯)
- number of viable cells, relative value to control (100%) [5, 13]: ◯ (one showing a value of not less than 120% as ◯)
- number of viable cells, relative value to control (100%) [5, 10]: ⊙
- number of viable cells, relative value to control (100%) [5, 11]: ⊙
- number of viable cells, relative value to control (100%) [5, 12]: ⊙
- number of viable cells, relative value to control (100%) [6, 13]: ⊙
- number of viable cells, relative value to control (100%) [6, 10]: ◯ (one showing a value of not less than 120% as ◯)
- number of viable cells, relative value to control (100%) [7, 13]: ◯ (one showing a value of not less than 120% as ◯)
- number of viable cells, relative value to control (100%) [7, 10]: ◯ (one showing a value of not less than 120% as ◯)
- number of viable cells, relative value to control (100%) [7, 12]: ◯ (one showing a value of not less than 120% as ◯)
- number of viable cells, relative value to control (100%) [8, 12]: ◯ (one showing a value of not less than 120% as ◯)
- proliferation activity (in words) [9]: promoted proliferation activity in a plurality of cancer cell lines

SMILES: CC/C(=N\NC(=O)Nc1ccccc1)c1ccc(O)c(C)c1O [k-1:H-10]
- viability at 5 µM [1, 13]: < 119%
- viability at 10 µM [1, 10]: < 119%
- viability at 5 µM [1, 11]: 120 to 150%
- viability at 10 µM [1, 12]: 120 to 150%
- viability at 5 µM ([2]; Homo sapiens, HCT-116, 96 h, low attachment U-bottom plate (gellan gum-free), 5 μM, read-out: number of viable cells, relative value to control (100%)): < 119%
- viability at 10 µM ([2]; Homo sapiens, HCT-116, 96 h, low attachment U-bottom plate (gellan gum-free), 10 μM, read-out: number of viable cells, relative value to control (100%)): < 119%
- viability at 5 µM ([3]; Homo sapiens, A-431, 96 h, low attachment U-bottom plate (gellan gum-free), 5 μM, read-out: number of viable cells, relative value to control (100%)): < 119%
- viability at 10 µM ([3]; Homo sapiens, A-431, 96 h, low attachment U-bottom plate (gellan gum-free), 10 μM, read-out: number of viable cells, relative value to control (100%)): < 119%
- viability at 5 µM [4, 13]: < 119%
- viability at 10 µM [4, 10]: 120 to 150%
- viability at 5 µM [4, 11]: < 119%
- viability at 10 µM [4, 12]: < 119%
- viability at 5 µM [5, 13]: 120 to 150%
- viability at 10 µM [5, 10]: < 119%
- viability at 5 µM [5, 11]: < 119%
- viability at 10 µM [5, 12]: 120 to 150%
- viability at 5 µM ([6]; Homo sapiens, LNCaP-Clone-FGC, 96 h, low attachment U-bottom plate (gellan gum-free), 5 μM, read-out: number of viable cells, relative value to control (100%)): 120 to 150%
- viability at 5 µM ([6]; Homo sapiens, LNCaP-Clone-FGC, 96 h, low attachment flat bottom plate (gellan gum medium), 5 μM, read-out: number of viable cells, relative value to control (100%)): < 119%
- viability at 10 µM ([6]; Homo sapiens, LNCaP-Clone-FGC, 96 h, low attachment flat bottom plate (gellan gum medium), 10 μM, read-out: number of viable cells, relative value to control (100%)): < 119%
- number of viable cells, relative value to control (100%) [6, 10]: ⊙
- viability at 5 µM [7, 13]: 120 to 150%
- viability at 10 µM [7, 10]: < 119%
- viability at 5 µM [7, 11]: < 119%
- viability at 10 µM [7, 12]: < 119%
- viability at 5 µM ([8]; Homo sapiens, 96 h, low attachment U-bottom plate (gellan gum-free), 5 μM, read-out: number of viable cells, relative value to control (100%)): < 119%
- viability at 10 µM ([8]; Homo sapiens, 96 h, low attachment U-bottom plate (gellan gum-free), 10 μM, read-out: number of viable cells, relative value to control (100%)): < 119%
- proliferation activity (in words) [9]: promoted proliferation activity in a plurality of cancer cell lines
